According to US20230015647A1, “INHIBITORS OF HISTONE DEMETHYLASES (PFI-63 AND PFI-90) FOR THE TREATMENT OF CANCER AND FOR THE INHIBITION OF HISTONE DEMETHYLASE IN CELLS” (The United States of America,as represented by the …, priority 2019, published 2023):
“Also recorded” adds a separate entry of the source. Where two headings read alike, the source gives them in different places.

Legend:
RH30 cells = test: Cell confluence assay (cytotoxicity) in RH30 cells; assay type: cell-based; details: 72 hour time point
Protocol: (§1) A cell confluence assay was performed to further assess the cytotoxicity of PFI-63 in RH4 and RH30 rhabdomyosarcoma cells. Confluence data was collected via photographic images of cells treated with PFI-63 at the following time points: 24 hours, 48 hours, 72 hours, 96 hours and 120 hours. Exemplary dose response curves at 72 hours are presented as FIGS. 10 and 11 in RH4 and RH30 cells, respectively.
(§2) A cell confluence assay was performed to assess the cytotoxicity of PFI-90 in RH4 and RH30 rhabdomyosarcoma cells. Confluence data was collected via photographic images of cells treated with PFI-90 at the following time points: 24 hours, 48 hours, 72 hours, 96 hours and 120 hours. Exemplary dose response curves at 72 hours are presented as FIGS. 32 and 33 in RH4 and RH30 cells, respectively.

RH30.19luc cells = test: CRISPR/Cas9 genome-scale loss of function time course screen (GeCKOv2, TKOv3); assay type: cell-based; details: compared to DMSO
Protocol: To identify specific proteins targeted by PFI-63, a genome-scale loss of function time course screen was performed in RH30.19luc cells using two CRISPR/Cas9 libraries (GeCKOv2 and TKOv3) with and without treatment with PFI-63.

KDM3B (JMJD1B) = biological target: T1, KDM3B (JMJD1B) (Homo sapiens, UniProt Q7LBC6); test: Eurofins histone lysine demethylase panel, enzymatic inhibition, substrate H3K9me1/2(3); assay type: biochemical; details: KDM3B (JMJD1B) enzymatic activity
T1 construct: The enzymatic activity of each of the full length protein was analyzed using known substrates; purchased Eurofins
T1 sequence (Q7LBC6 whole entry): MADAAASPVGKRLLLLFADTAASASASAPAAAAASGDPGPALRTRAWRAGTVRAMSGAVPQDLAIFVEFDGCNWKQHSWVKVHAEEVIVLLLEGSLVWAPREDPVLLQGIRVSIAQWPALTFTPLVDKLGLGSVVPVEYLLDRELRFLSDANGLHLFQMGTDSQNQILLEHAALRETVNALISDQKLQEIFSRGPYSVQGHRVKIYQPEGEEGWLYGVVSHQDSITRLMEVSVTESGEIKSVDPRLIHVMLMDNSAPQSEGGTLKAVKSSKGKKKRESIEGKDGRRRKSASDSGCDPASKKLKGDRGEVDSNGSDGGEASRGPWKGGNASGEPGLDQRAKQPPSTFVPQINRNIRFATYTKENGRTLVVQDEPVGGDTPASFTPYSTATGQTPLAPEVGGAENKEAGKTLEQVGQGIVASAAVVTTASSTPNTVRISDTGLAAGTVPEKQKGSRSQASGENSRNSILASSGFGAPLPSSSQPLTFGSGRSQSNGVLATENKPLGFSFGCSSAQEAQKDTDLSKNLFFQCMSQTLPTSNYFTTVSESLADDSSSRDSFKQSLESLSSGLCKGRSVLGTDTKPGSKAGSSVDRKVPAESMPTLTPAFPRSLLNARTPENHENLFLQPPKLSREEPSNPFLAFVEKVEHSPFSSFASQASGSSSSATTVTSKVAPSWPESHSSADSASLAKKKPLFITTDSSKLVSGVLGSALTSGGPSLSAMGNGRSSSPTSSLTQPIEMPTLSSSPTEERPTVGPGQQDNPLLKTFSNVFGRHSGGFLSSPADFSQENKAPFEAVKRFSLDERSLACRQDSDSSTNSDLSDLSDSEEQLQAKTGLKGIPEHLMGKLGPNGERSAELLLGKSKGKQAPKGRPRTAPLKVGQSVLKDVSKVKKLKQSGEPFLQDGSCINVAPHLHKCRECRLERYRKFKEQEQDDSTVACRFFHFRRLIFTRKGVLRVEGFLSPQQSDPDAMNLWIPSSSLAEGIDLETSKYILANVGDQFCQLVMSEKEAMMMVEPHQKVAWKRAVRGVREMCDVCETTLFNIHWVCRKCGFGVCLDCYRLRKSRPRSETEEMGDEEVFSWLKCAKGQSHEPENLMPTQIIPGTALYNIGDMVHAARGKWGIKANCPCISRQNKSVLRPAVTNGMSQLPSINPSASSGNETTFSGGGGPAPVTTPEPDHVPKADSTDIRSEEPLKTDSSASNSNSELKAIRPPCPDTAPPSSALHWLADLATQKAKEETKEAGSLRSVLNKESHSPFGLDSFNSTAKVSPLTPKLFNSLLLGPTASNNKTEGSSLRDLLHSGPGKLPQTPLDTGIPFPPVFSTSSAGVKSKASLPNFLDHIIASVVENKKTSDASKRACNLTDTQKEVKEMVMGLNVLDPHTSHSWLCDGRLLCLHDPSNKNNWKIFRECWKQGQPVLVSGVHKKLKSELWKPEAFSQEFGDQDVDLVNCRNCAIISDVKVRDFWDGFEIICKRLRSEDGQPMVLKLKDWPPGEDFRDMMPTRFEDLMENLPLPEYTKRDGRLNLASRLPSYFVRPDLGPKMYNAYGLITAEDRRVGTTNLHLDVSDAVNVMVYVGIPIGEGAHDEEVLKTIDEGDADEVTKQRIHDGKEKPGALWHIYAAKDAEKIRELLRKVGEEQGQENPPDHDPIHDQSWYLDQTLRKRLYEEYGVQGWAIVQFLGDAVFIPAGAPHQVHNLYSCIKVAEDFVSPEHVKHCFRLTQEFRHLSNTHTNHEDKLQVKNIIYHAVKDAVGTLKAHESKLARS
Protocol: PFI-63 was sent to Eurofins (www.eurofins.com) for direct enzymatic inhibition activity analysis. The enzymatic activity of each of the full length protein was analyzed using known substrates such as methylated lysines. The proteins were treated with various concentrations of PFI-63. As described above, PFI-90 inhibitory activity was determined by Eurofins using enzymatic inhibition activity analysis of a panel of histone demethylases.

RH4 cells [1] = test: Gene set enrichment analysis (GSEA) of RNASeq gene expression; assay type: cell-based, human
Protocol: Gene set enrichment analyses (GSEA) were performed according to methods known in the art to evaluate […] in cells treated with PFI-63 as compared to control cells. Briefly, gene expression in RH4 cells treated with PFI-63 was assessed by RNASeq, and the results were statistically compared with various pre-existing gene sets. […] The results also indicate that RH4 cells treated with PFI-63 experience upregulation of targets associated with myogenic differentiation and apoptosis (see FIGS. 18 and 19).
GSEA assays like those performed in Example 3 above, were also performed to assess PFI-90. The results for PFI-90 were similar to those obtained for PFI-63. […] The results also indicate that cells treated with PFI-90 experience upregulation of targets associated with myogenic differentiation and apoptosis (see FIGS. 39-40).

RH4 cells [2] = test: Annexin V staining; assay type: cell-based, human; details: relative to DMSO control
From the text: The impact of PFI-63 and PFI-90 on apoptosis in rhabdomyosarcoma cells was investigated by assaying caspase 3 levels in the cells, and by annexin V staining.

[3] = tested on: rhabdomyosarcoma cells (i.e. RH4 and RH30 cells); test: Cell confluence / cell number, rhabdomyosarcoma cells taken together; assay type: cell-based
Protocol: Among the 64 compounds identified above, 33 compounds of unknown mechanism of action were identified.
as §1, §2

[4] = tested on: TC-32 Ewing's sarcoma cells; test: Cell confluence assay in TC-32 Ewing's sarcoma cells; assay type: cell-based; details: Homo sapiens, TC-32 cells
Protocol: A cell confluence assay was performed to further assess the cytotoxicity of PFI-63 in OSA-CL osteosarcoma cells. Confluence data was collected via photographic images of cells treated with PFI-63 at the following time points: 24 hours, 48 hours, 72 hours, 96 hours and 120 hours. Exemplary dose response curves at 72 hours are presented as FIGS. 59 and 60 for PFI-63 and PFI-90 respectively.
A similar assay was performed to assess the cytotoxicity of PFI-63 and PFI-90 in TC-32 Ewing's sarcoma cells. Exemplary dose response curves at 72 hours are presented as FIGS. 61 and 62 for PFI-63 and PFI-90 respectively.

[5] = tested on: truncated KDM3B catalytic domain; test: WaterLOGSY NMR binding assay; details: 300 μM; in the presence and in the absence of 2-OG
From the text: (§3) A WaterLOGSY assay and a Carr-Purcell Meiboom-Gill (CPMG) based assay were used to investigate protein-ligand binding affinity between PFI-90 and a truncated KDM3B catalytic domain.
In traditional proton NMR experiments, a series of peaks are generated that represent the structure of a solitary small molecule, whereas the WaterLOGSY experiment examines the behavior of a small molecule's peaks in the presence of a potential target. This is achieved by observing differences in interaction between a small molecule interacting with water co-occupying a binding cleft on a target as compared to water dispersed freely in solution. The experiment then depicts the ratio of bound to unbound small molecule by phasing proton NMR spectra on the X-axis in opposing directions depending on the magnitude of that ratio (i.e., increasing ratios above 1 will phase positively, decreasing ratios below 1 will phase negatively).

[6] = tested on: truncated KDM3B catalytic domain; test: CPMG relaxation editing NMR binding assay
From the text: as §3
CPMG (Carr-Purcell-Meiboom-Gill) Relaxation Editing Proton NMR is another drug-discovery NMR experiment that may be used in conjunction with WaterLOGSY to orthogonally validate the presence of a reversible binding interaction of mild to high affinity from a small molecule to a label-free target. In contrast to WaterLOGSY, all peaks are phased above the X-axis. Instead, this experiment filters out the proportion of peak height that is contributed from the quantity of small molecule bound to a target of high molecular weight (e.g., a protein). Once the attenuation of peak height is equivalent to a 20% reduction, the compound is said to bind, with an increasing ratio of bound to unbound small molecules manifesting in increasing signal attenuation.

[7] = tested on: truncated KDM3B catalytic domain; test: 1D 1H NMR chemical shift perturbation; assay type: binding; details: 300 uM PFI-90, 12 uM protein, with or without 100 uM 2-OG
From the text: For reference, FIG. 63 depicts NMR peaks for PFI-90. While the peaks are complex, all relevant peaks are clearly resolved. FIG. 64 depicts NMR peaks obtained for […] (also called 2-oxoglutaric acid or “2-OG”), a substrate of histone demethylases. 2-OG peaks are easily resolved. FIG. 65 depicts results from a 1D 1H analysis of PFI-90.

[8] = 72 hour time point, read-out: IC50
[9] = approximate, read-out: IC50 (toxic to Ewing's sarcoma cells)

Structure (SMILES) | IC50 (RH30 cells) [nM] | GSEA: genes that are induced upon KDM3B suppression (RH4 cells [1]) | GSEA: targets associated with apoptosis (RH4 cells [1]) | GSEA: targets associated with myogenic differentiation (RH4 cells [1]) | GSEA: targets of the PAX3-FOXO1 fusion transcription factor (RH4 cells [1]) | cell death by annexin V staining (RH4 cells [2]) | IC50 [4, 8] [nM] | IC50 [4, 9] [nM] | also measured
Cc1cc(C)cc(C(=O)NNC(=O)c2ccccn2)c1 [PFI-63] | 4820 | upregulated | upregulation | upregulation | downregulated | increase in cell death | 1880 | ~2000 | synthetic lethality of targets of histone lysine demethylases (RH30.19luc cells): synthetically lethal; IC50 (KDM3B (JMJD1B)): 2000 to 3000 nM; GSEA: targets that are upregulated by GSK-J4 (RH4 cells [1]): upregulated; also recorded: upregulation; GSEA: targets that are upregulated by JIB-04 (RH4 cells [1]): upregulated; also recorded: upregulation; IC50 ([3]; FIGS. 8-9 (cell number by confluency, RH4, RH30, RH30.19luc), read-out: IC50): 2000 to 6000 nM; IC50 ([3]; RH4 and RH30 cells, approximate, read-out: IC50 (toxic to rhabdomyosarcoma cells)): 3000 to 5000 nM
O=C(NNc1ccccn1)c1ccccn1 [PFI-90] | 3200 | upregulated | upregulation | upregulation | downregulated | increase in cell death | 1110 | ~1000 | binding (WaterLOGSY) [5]: found to bind; also recorded: binds; peak height attenuation (CPMG) ([6]; 1 of 9 peaks): 70%; peak height attenuation (CPMG) ([6]; 3 of 9 peaks): 50%; peak height attenuation (CPMG) ([6]; 5 out of 9 PFI-90 peaks): Complete/near complete; binding (CPMG) ([6]; in the presence and absence of 2-OG): Strong binding; cytotoxicity compared with PFI-63 ([3]; rhabdomyosarcoma cells (RH4, RH30)): more cytotoxic to rhabdomyosarcoma cells than PFI-63; chemical shift perturbation upon addition of truncated KDM3B catalytic domain [7]: not influences by 2-OG presence; also recorded: not influenced by the presence of 2-OG
